The values that follow come from article PMC1500806, “Carrageenan Is a Potent Inhibitor of Papillomavirus Infection” (PLoS Pathogens, 2006).

For one data set, the system named is HeLa cells. Nature of the data set: Cytotoxicity (WST-1 turnover and/or cell morphology). It counts as cell-based. Here is the method:
(§1) Compounds were tested using a previously described PsV-based papillomavirus inhibition assay. Briefly, HeLa cells were plated at 6,000 cells/well in 50 μl of medium in 96-well plates. Candidate inhibitors were dissolved at 1–10 mg/ml (or reconstituted as directed by manufacturer) in sterile water or appropriate solvent, then subjected to a ten-point three-fold serial dilution covering an appropriate concentration range. Diluted candidate inhibitor (50 μl) was added to preplated HeLa cells, followed by 50 μl of diluted PsV stock. The cells were incubated for 24 h, fed by addition of 100 μl of DMEM-10, then subjected to flow cytometric analysis 48–56 h after infection. IC50 values and 95% CI were determined using Prism (GraphPad Software, San Diego, California, United States) to calculate a variable slope sigmoidal dose-response curve.
(§2) Cytotoxicity was defined as a >50% reduction in the net turnover of the metabolic substrate WST-1 (Roche, Indianapolis, Indiana, United States) and/or by the appearance of dramatic alterations in the microscopic appearance of cell morphology at the time of harvest.
In general terms: Tetrazolium assays rely on reduction of a dye to a coloured formazan, in cell work by metabolically active cells.

Experiment in data set [1]: as above
It counts as cell-based. Conditions: human, HeLa cells; >50% reduction in WST-1 turnover and/or altered cell morphology. The protocol: as §1, §2

Where [2] appears, read: >50% reduction in WST-1 turnover and/or altered cell morphology.

Values after ≈ are worked out from the molar mass of the structure shown. Like-named read-outs stand apart in the source and are kept apart here. Positions of bridges follow the written chain, without caps; N, C: chain ends. Non-standard residues stand in square brackets, D forms with d. Residues, ends and D or L forms follow the SMILES beside them. *: point of attachment. Ileψ(thiazoline)Cys = CC[C@H](C)[C@H](N)C1=N[C@H](C(=O)*)CS1; dOrn = NCCC[C@@H](N)C(=O)O

`Cl.N=C(N)N` [Guanidine hydrochloride] registered a Cytotoxicity with HeLa cells of over 475 µg/mL.
Still for that read-out and setting: as for `O[C@@H](CS)[C@@H](O)CS` [Dithiothreotol], the figure is over 100 µg/mL; as for `C[C@@H]1[C@H](O)[C@@H](C)/C=C/C=C/CC/C=C/C=C/C=C/C=C/C(O[C@H]2O[C@H](C)[C@@H](O)[C@H](N)[C@@H]2O)CC2O[C@](O)(CC(O)C(O)CCC(O)CC(O)CC(O)CC(=O)O[C@H]1C)CC(O)C2C(=O)O` (stereo partly shown) [Nystatin], 100 µg/mL.
Regarding Poly-(arginine-aminocaproyl), the Cytotoxicity in the data set on HeLa cells (setting [2]) is over 100 µg/mL.
Broadly, the CC50 is the concentration that lowers cell viability or growth by half. High values mean better tolerance by the cells, low ones harm at low concentration. Regarding `CC[C@H](C)[C@@H]1NC(=O)CNC(=O)[C@H](CCCNC(=N)N)NC(=O)[C@H](Cc2ccc(O)cc2)NC(=O)[C@@H]2CSSC[C@H](NC1=O)C(=O)N[C@@H](Cc1ccc(O)cc1)C(=O)N[C@@H](CCCNC(=N)N)C(=O)N[C@@H](CCCNC(=N)N)C(=O)N[C@H](C(=O)N[C@@H](CCCNC(=N)N)C(N)=O)CSSC[C@H](NC(=O)[C@H](Cc1c[nH]c3ccccc13)NC(=O)[C@@H](N)CCCCN)C(=O)N[C@@H](Cc1ccccc1)C(=O)N[C@@H](CCCNC(=N)N)C(=O)N[C@@H](C(C)C)C(=O)N2` [Tachyplesin-I] (H-KWCFRVCYRGICYRRCR-NH2; disulfide 3-16, 7-12), half-maximal cytotoxicity in data set [1] (CC50) was put at 100 mg/L (≈ 44.2 µM).
In turn, `CC[C@H](C)[C@H](NC(=O)CN)C(=O)NCC(=O)N[C@@H](C)C(=O)N[C@H](C(=O)N[C@@H](CC(C)C)C(=O)N[C@@H](CCCCN)C(=O)N[C@H](C(=O)N[C@@H](CC(C)C)C(=O)N[C@H](C(=O)N[C@H](C(=O)NCC(=O)N[C@@H](CC(C)C)C(=O)N1CCC[C@H]1C(=O)N[C@@H](C)C(=O)N[C@@H](CC(C)C)C(=O)N[C@H](C(=O)N[C@@H](CO)C(=O)N[C@@H](Cc1c[nH]c2ccccc12)C(=O)N[C@H](C(=O)N[C@@H](CCCCN)C(=O)N[C@@H](CCCNC(=N)N)C(=O)N[C@@H](CCCCN)C(=O)N[C@@H](CCCNC(=N)N)C(=O)N[C@@H](CCC(N)=O)C(=O)N[C@@H](CCC(N)=O)C(N)=O)[C@@H](C)CC)[C@@H](C)CC)[C@@H](C)O)[C@@H](C)O)C(C)C)C(C)C` [Melittin] displayed a cytotoxic concentration (CC50) in data set [1] of 4 mg/L (≈ 1.41 µM).
Molecule `C[C@@H](O)[C@H](N)C(=O)N[C@@H](CCCCN)C(=O)N1CCC[C@H]1C(=O)N[C@@H](CCCNC(=N)N)C(=O)O` [Tuftsin] (H-TKPR-OH; N-terminus and C-terminus assumed) displayed a CC50 in data set [1] of over 100 mg/L.
Same read-out and setting: to `N=C(N)NCCC[C@H](NC(=O)[C@H](CCCNC(=N)N)NC(=O)[C@H](CCCNC(=N)N)NC(=O)[C@H](CCCNC(=N)N)NC(=O)[C@H](CCCNC(=N)N)NC(=O)[C@H](CCCNC(=N)N)NC(=O)[C@@H](N)CCCNC(=N)N)C(=O)O` [Poly-arginine7] belongs over 100 mg/L.
On the same count and under the same terms, as for `CC[C@H](C)[C@H](NC(=O)CNC(=O)[C@H](CC(=O)O)NC(=O)[C@H](CCCNC(=N)N)NC(=O)[C@@H](NC(=O)[C@H](CC(N)=O)NC(=O)[C@H](CCC(N)=O)NC(=O)CNC(=O)[C@@H](NC(=O)[C@H](CCCCN)NC(=O)[C@H](CCC(=O)O)NC(=O)[C@@H](NC(=O)[C@H](CCCCN)NC(=O)[C@H](CCCCN)NC(=O)[C@H](Cc1ccccc1)NC(=O)[C@H](CC(C)C)NC(=O)[C@H](CCCCN)NC(=O)[C@H](Cc1c[nH]c2ccccc12)NC(=O)[C@@H](N)CCCCN)[C@@H](C)CC)C(C)C)[C@@H](C)CC)C(=O)N[C@H](C(=O)N[C@@H](CCCCN)C(=O)N[C@@H](C)C(=O)NCC(=O)N1CCC[C@H]1C(=O)N[C@@H](C)C(=O)N[C@H](C(=O)N[C@@H](C)C(=O)N[C@H](C(=O)N[C@H](C(=O)NCC(=O)N[C@@H](CCC(N)=O)C(=O)N[C@@H](C)C(=O)N[C@H](C(=O)N[C@@H](CCC(N)=O)C(=O)N[C@H](C(=O)N[C@@H](C)C(=O)N[C@@H](CCCCN)C(N)=O)[C@@H](C)CC)[C@@H](C)O)C(C)C)C(C)C)C(C)C)[C@@H](C)CC` [Cecropin A (porcine)] (H-KWKLFKKIEKVGQNIRDGIIKAGPAVAVVGQATQIAK-NH2; N-terminus and C-terminus assumed), the figure is over 100 mg/L.
As to `O=[N+]([O-])c1ccc(Cl)c([N+](=O)[O-])c1` [1-Chloro-2,4-dinitrobenzene (DNCB), 1-Chloro-2,4-dinitrobenzene], in the data set on HeLa cells (setting [2]), the Cytotoxicity worked out at 7 µg/mL.
With `O=C(O)c1cc(SSc2ccc([N+](=O)[O-])c(C(=O)O)c2)ccc1[N+](=O)[O-]` [Ellman's reagent], the Cytotoxicity in the data set on HeLa cells is 1,300 μg/ml.
On to `CCCCS(=N)(=O)CCC(N)C(=O)O` (stereo not shown) [Buthionine sulfoximine (BSO), Buthionine sulfoximine], for which, in the data set on HeLa cells (human), the Cytotoxicity was over 7 µg/mL.
`CC(C)[C@H](NC(=O)[C@H](CCCCN)NC(=O)CNC(=O)CNC(=O)[C@H](CCC(N)=O)NC(=O)[C@H](CCCCN)NC(=O)CNC(=O)[C@H](CCCNC(=N)N)NC(=O)CNC(=O)[C@@H](N)CCCCN)C(=O)N[C@@H](CCCNC(=N)N)C(=O)N[C@@H](C)C(=O)N[C@@H](CCCCN)C(=O)N[C@@H](C)C(=O)N[C@@H](CCCCN)C(=O)N[C@H](C(=O)N[C@@H](CCCNC(=N)N)C(=O)N[C@@H](CO)C(=O)N[C@@H](CO)C(=O)O)[C@@H](C)O` [Parasin-I] (H-KGRGKQGGKVRAKAKTRSS-OH): the CC50 in data set [1] is over 100 mg/L.
In turn, `CC[C@H](C)[C@H](NC(=O)[C@H](CCCCN)NC(=O)[C@H](CCCCN)NC(=O)[C@H](Cc1ccccc1)NC(=O)[C@H](CC(C)C)NC(=O)[C@H](CCCCN)NC(=O)[C@H](Cc1c[nH]c2ccccc12)NC(=O)[C@@H](N)CCCCN)C(=O)NCC(=O)N[C@@H](C)C(=O)N[C@H](C(=O)N[C@@H](CC(C)C)C(=O)N[C@@H](CCCCN)C(=O)N[C@H](C(=O)N[C@@H](CC(C)C)C(N)=O)C(C)C)C(C)C` [Cecropin A-Mellitin hybrid] (H-KWKLFKKIGAVLKVL-NH2; N-terminus and C-terminus assumed) showed a CC50 in data set [1] of 11 mg/L (≈ 6.21 µM).
With `CC[C@H](C)[C@H](N)C1=N[C@H](C(=O)N[C@@H](CC(C)C)C(=O)N[C@H](CCC(=O)O)C(=O)N[C@H](C(=O)N[C@H]2CCCCNC(=O)[C@H](CC(N)=O)NC(=O)[C@@H](CC(=O)O)NC(=O)[C@H](Cc3cnc[nH]3)NC(=O)[C@@H](Cc3ccccc3)NC(=O)[C@H]([C@@H](C)CC)NC(=O)[C@@H](CCCN)NC2=O)[C@@H](C)CC)CS1` [Bacitracin] ({Ileψ(thiazoline)Cys}-L[dE]IK[dOrn]I[dF]H[dD]N; lactam 4-C (inferred)), in data set [1], the CC50 was over 420 mg/L.
Take `OCCS` [2-Mercaptoethanol]: in the data set with HeLa cells, the Cytotoxicity is over 100 µg/mL.
As for Gelatin, the Cytotoxicity in the data set with HeLa cells (setting [2]) is over 100 µg/mL.
As to “Gramicidins A-D [Gramicidins A-D (B. Brevis)]”, the Cytotoxicity in the data set on HeLa cells (setting [2]) is 1.2 µg/mL.
For the molecule `CSCC[C@H](NC(=O)[C@H](CCCNC(=N)N)NC(=O)[C@H](Cc1c[nH]c2ccccc12)NC(=O)[C@H](CCC(N)=O)NC(=O)[C@H](Cc1c[nH]c2ccccc12)NC(=O)[C@H](CCCNC(=N)N)NC(=O)[C@@H](N)CCCNC(=N)N)C(=O)N[C@@H](CCCCN)C(=O)N[C@@H](CCCCN)C(=O)N[C@@H](CC(C)C)C(=O)NCC(=O)O` [Lactoferricin B 4–14 fragment] (H-RRWQWRMKKLG-OH; N-terminus and C-terminus assumed), the CC50 in data set [1] was over 15 mg/L.
Regarding `CC[C@H](C)[C@H](NC(=O)CN)C(=O)NCC(=O)N[C@@H](CCCCN)C(=O)N[C@@H](Cc1ccccc1)C(=O)N[C@@H](CC(C)C)C(=O)N[C@@H](Cc1c[nH]cn1)C(=O)N[C@@H](CO)C(=O)N[C@@H](C)C(=O)NCC(=O)N[C@@H](CCCCN)C(=O)N[C@@H](Cc1ccccc1)C(=O)NCC(=O)N[C@@H](CCCCN)C(=O)N[C@@H](C)C(=O)N[C@@H](Cc1ccccc1)C(=O)N[C@H](C(=O)NCC(=O)N[C@@H](CCC(=O)O)C(=O)N[C@H](C(=O)N[C@@H](CCSC)C(=O)N[C@@H](CCCCN)C(=O)N[C@@H](CO)C(=O)O)[C@@H](C)CC)C(C)C` [Magainin-I] (H-GIGKFLHSAGKFGKAFVGEIMKS-OH), in data set [1], the CC50 was over 100 mg/L.
The same measure, in the same setting: as for `CC(C)C[C@H](NC(=O)[C@H](C)NC(=O)[C@H](CCCCN)NC(=O)[C@H](CCCCN)NC(=O)[C@H](CC(C)C)NC(=O)[C@H](C)NC(=O)[C@H](CCCCN)NC(=O)[C@H](CCCCN)NC(=O)[C@H](CC(C)C)NC(=O)[C@H](CCCCN)NC(=O)[C@H](CCCCN)NC(=O)[C@H](CC(C)C)NC(=O)[C@H](C)NC(=O)[C@H](CCCCN)NC(=O)[C@H](CCCCN)NC(=O)[C@H](CC(C)C)NC(=O)[C@H](C)NC(=O)[C@H](CCCCN)NC(=O)[C@H](CC(C)C)NC(=O)[C@H](C)NC(=O)[C@H](CC(C)C)NC(=O)[C@H](C)NC(=O)[C@@H](N)Cc1ccccc1)C(=O)O` [Hecate] (H-FALALKALKKALKKLKKALKKAL-OH; N-terminus and C-terminus assumed), the figure is 17 mg/L (≈ 6.7 µM).
`CCCCCCCCCCCCOS(=O)(=O)[O-].[Na+]` [Sodium dodecyl sulfate] had a Cytotoxicity in the data set on HeLa cells of 333 µg/mL.
